Test results taken from patent publication US10336697B2, “Spiro[cyclobutane-1,3′-indolin]-2′-one derivatives as bromodomain inhibitors” (Orion Corporation, priority 2015, dated 2019).

molecular target: Bet BRD4 full length bromo-domain protein (Homo sapiens, UniProt O60885); experiment: Bet bromodomain TR-FRET assay (displacement of acetyl histone peptide); assay type: binding; conditions: Bet BRD4 full length bromodomain protein, 300 nM acetyl histone peptide substrate, read-out: IC50

Structure (SMILES) | IC50 [nM]
C=CCCNc1cc(NS(=O)(=O)c2ccccc2OC)cc2c1NC(=O)C21CCC1 [Compound 14, N-(7′-(but-3-en-1-ylamino)-2′-oxospiro[cyclobutane-1,3′-indolin]-5′-yl)-2-methoxybenzenesulfonamide] | < 600
O=C(Nc1ccncc1)c1cc(NS(=O)(=O)c2ccc(F)cc2F)cc2c1NC(=O)C21CCC1 [Compound 57, 5′-(2,4-Difluorophenylsulfonamido)-2′-oxo-N-(pyridin-4-yl)spiro[cyclobutane-1,3′-indoline]-7′-carboxamide] | < 600
CCC(=O)N1CCC(Nc2cc(NS(=O)(=O)c3ccc(F)cc3F)cc3c2NC(=O)C32CCC2)CC1 [Compound 21, 2,4-Difluoro-N-(2′-oxo-7′-((1-propionylpiperidin-4-yl)amino)spiro[cyclobutane-1,3′-indolin]-5′-yl)benzenesulfonamide] | < 600
Cn1cnc(CNc2cc(NS(=O)(=O)c3ccc(F)cc3F)cc3c2NC(=O)C32CCC2)c1 [Compound 31, 2,4-Difluoro-N-(7′-(((1-methyl-1H-imidazol-4-yl)methyl)amino)-2′-oxospiro[cyclobutane-1,3′-indolin]-5′-yl)benzenesulfonamide] | < 600
O=C(Nc1cc(C2CC2)c2c(c1)C1(CCC1)C(=O)N2)c1ccc(F)cc1 [Compound 75a, N-(7′-Cyclopropyl-2′-oxospiro[cyclobutane-1,3′-indolin]-5′-yl)-4-fluorobenzamide] | 600 to 1000
O=C1Nc2c(NC3CCNCC3F)cc(NS(=O)(=O)c3ccc(F)cc3F)cc2C12CCC2 (stereo not shown) [Compound 102, 2,4-Difluoro-N-(7′-((3-fluoropiperidin-4-yl)amino)-2′-oxospiro[cyclobutane-1,3′-indolin]-5′-yl)benzenesulfonamide] | 600 to 1000
CN1CCC(NC(=O)c2cc(NS(=O)(=O)c3ccc(C#N)cc3F)cc3c2NC(=O)C32CCC2)CC1 [Compound 81, 5′-((4—Cyano-2-fluorophenyl)sulfonamido)-N-(1-methylpiperidin-4-yl)-2′-oxospiro[cyclobutane-1,3′-indoline]-7′-carboxamide] | > 1000
COc1ccccc1S(=O)(=O)Nc1cc(C(C)c2ccccn2)c2c(c1)C1(CCC1)C(=O)N2 (stereo not shown) [Compound 123, 2-Methoxy-N-(2′-oxo-7′-(1-(pyridin-2-yl)ethyl)spiro [cyclobutane-1,3′-indolin]-5′-yl)benzenesulfonamide] | < 600
COc1ccccc1NC(=O)Nc1cc(C2CC2)c2c(c1)C1(CCC1)C(=O)N2 [Compound 121, 1-(7′—Cyclopropyl-2′-oxospiro[cyclobutane-1,3′-indolin]-5′-yl)-3-(2-methoxyphenyl)urea] | < 600
COc1ccccc1S(=O)(=O)Nc1cc(C(C)c2ccccc2)c2c(c1)C1(CCC1)C(=O)N2 (single isomer, unassigned) [Compound 115, 2-Methoxy-N-(2′-oxo-7′-(1-phenylethyl)spiro [cyclobutane-1,3′-indolin]-5′-yl)benzenesulfonamide] | 600 to 1000
CN1CCC(Oc2cc(NS(=O)(=O)c3ccc(Cl)cc3F)cc3c2NC(=O)C32CCC2)CC1 [Compound 130, 4-Chloro-2-fluoro-N-(7′-((1-methylpiperidin-4-yl)oxy)-2′-oxospiro[cyclobutane-1,3′-indolin]-5′-yl)benzenesulfonamide] | < 600
O=C1Nc2c(-c3ccc4nc[nH]c4c3)cc(NS(=O)(=O)c3ccc(F)cc3F)cc2C12CCC2 [Compound 8, N-(7′-(1H-benzo[d]imidazol-6-yl)-2′-oxospiro[cyclobutane-1,3′-indolin]-5′-yl)-2,4-difluorobenzenesulfonamide] | 600 to 1000
O=C1Nc2c(NCc3ccncc3)cc(NS(=O)(=O)c3ccc(F)cc3F)cc2C12CCC2 [Compound 23, 2,4-Difluoro-N-(2′-oxo-7′-((pyridin-4-ylmethyl)amino)spiro[cyclobutane-1,3′-indolin]-5′-yl)benzenesulfonamide] | < 600
COc1ccccc1S(=O)(=O)Nc1cc(NC2CCN(C)CC2F)c2c(c1)C1(CCC1)C(=O)N2 (stereo not shown) [Compound 78, N-(7′-((3-fluoro-1-methylpiperidin-4-yl)amino)-2′-oxospiro [cyclobutane-1,3′-indolin]-5′-yl)-2-methoxy benzenesulfonamide] | < 600
O=C(NC1CCNCC1)c1cc(NS(=O)(=O)c2ccc(F)cc2F)cc2c1NC(=O)C21CCC1 [Compound 66, 5′-(2,4-Difluorophenylsulfonamido)-2′-oxo-N-(piperidin-4-yl)spiro[cyclobutane-1,3′-indoline]-7′-carboxamide] | < 600
COC(=O)c1cc(NS(=O)(=O)c2ccc(F)cc2F)cc2c1NC(=O)C21CCC1 [Compound 41, Methyl 5′-((2,4-difluorophenyl)sulfonamido)-2′-oxospiro[cyclobutane-1,3′-indoline]-7′-carboxylate] | < 600
COc1ccccc1S(=O)(=O)Nc1cc(NCC2CC2)c2c(c1)C1(CCC1)C(=O)N2 [Compound 13, N-(7′-((cyclopropylmethyl)amino)-2′-oxospiro[cyclobutane-1,3′-indolin]-5′-yl)-2-methoxybenzenesulfonamide] | < 600
Nc1cc(NS(=O)(=O)c2ccc(F)cc2F)cc2c1NC(=O)C21CCC1 [Compound 15, N-(7′-amino-2′-oxospiro[cyclobutane-1,3′-indolin]-5′-yl)-2,4-difluoro-benzenesulfonamide] | < 600
CN1CCC(CCNc2cc(NS(=O)(=O)c3ccc(F)cc3F)cc3c2NC(=O)C32CCC2)CC1 [Compound 28, 2,4-Difluoro-N-(7′-((2-(1-methylpiperidin-4-yl)ethyl)amino)-2′-oxospiro[cyclobutane-1,3′-indolin]-5′-yl)benzenesulfonamide] | < 600
CN1CCC(Oc2cc(NS(=O)(=O)c3ccc(Cl)cc3F)cc3c2NC(=O)C32CCC2)C1 (stereo not shown) [Compound 138, 4-Chloro-2-fluoro-N-(7′-((1-methylpyrrolidin-3-yl)oxy)-2′-oxospiro[cyclobutane-1,3′-indolin]-5′-yl)benzenesulfonamide] | < 600
COc1ccccc1S(=O)(=O)Nc1cc(C(=O)NC2CCNCC2)c2c(c1)C1(CCC1)C(=O)N2 [Compound 64, 5′-((2-methoxyphenyl)sulfonamido)-2′-oxo-N-(piperidin-4-yl)spiro[cyclobutane-1,3′-indoline]-7′-carboxamide] | < 600
COc1ccccc1S(=O)(=O)Nc1cc(OC[C@@H]2CCCN2C)c2c(c1)C1(CCC1)C(=O)N2 [Compound 139, (S)-2-methoxy-N-(7′-((1-methylpyrrolidin-2-yl)methoxy)-2′-oxospiro[cyclobutane-1,3′-indolin]-5′-yl)benzenesulfonamide] | < 600
O=C1Nc2c(-c3cccc(O)c3)cc(NS(=O)(=O)c3ccc(F)cc3F)cc2C12CCC2 [Compound 1, 2,4-difluoro-N-(7′-(3-hydroxyphenyl)-2′-oxospiro[cyclobutane-1,3′-indolin]-5′-yl)benzenesulfonamide] | < 600

Further lines, results first:

IC50 [nM] | Structure (SMILES)
> 1000 | O=C(Nc1cc(C2CC2)c2c(c1)C1(CCC1)C(=O)N2)c1cccnc1N1CCOCC1 [Compound-223, N-(7′-cyclopropyl-2′oxospiro[cyclobutane-1,3′-indolin]-5′-yl)-2-morpholinonicotinamide]
> 1000 | COc1ccccc1S(=O)(=O)Nc1cc(OC2CCN(C)CC2)c2c(c1Br)C1(CCC1)C(=O)N2 [compound 216, N-(4′-bromo-7′-((1-methylpiperidin-4-yl)oxy)-2′-oxospiro[cyclobutane-1,3′-indolin]-5′-yl)-2-methoxybenzenesulfonamide]
> 1000 | O=C(Nc1cc(Br)c2c(c1)C1(CCC1)C(=O)N2)c1cccnc1N1CCOCC1 [Compound-222, N-(7′-bromo-2′-oxospiro[cyclobutane-1,3′-indolin]-5′-yl)-2-morpholinonicotinamide]
< 600 | COc1ccccc1S(=O)(=O)Nc1cc(OC2CCS(=O)(=O)CC2)c2c(c1)C1(CCC1)C(=O)N2 [Compound 143, N-(7′-((1,1-dioxidotetrahydro-2H-thiopyran-4-yl)oxy)-2′-oxospiro[cyclobutane-1,3′-indolin]-5′-yl)-2-methoxybenzenesulfonamide]
< 600 | COc1ccccc1S(C)(=O)=Nc1cc(NC2CCN(C)CC2)c2c(c1)C1(CCC1)C(=O)N2 (stereo not shown) [Compound-183, 5′-(((2-Methoxyphenyl)(methyl)(oxo)-l6-sulfanylidene)amino)-7′-((1-methylpiperidin-4-yl)amino)spiro[cyclobutane-1,3′-indolin]-2′-one]
< 600 | CC1CC(Oc2cc(NS(=O)(=O)c3ccc(Cl)cc3F)cc3c2NC(=O)C32CCC2)CC(C)N1 (stereo not shown) [compound 201, 4-Chloro-N-(7′-((2,6-dimethylpiperidin-4-yl)oxy)-2′-oxospiro[cyclobutane-1,3′-indolin]-5′-yl)-2-fluorobenzenesulfonamide]
< 600 | CC(C)Oc1ccccc1S(=O)(=O)Nc1cc(OC2CCN(C)CC2)c2c(c1)C1(CCC1)C(=O)N2 [Compound-184, 2-Isopropoxy-N-(7′-((1-methylpiperidin-4-yl)oxy)-2′-oxospiro[cyclobutane-1,3′-indolin]-5′-yl)benzenesulfonamide]
600 to 1000 | O=C1Nc2c(OC3CCC(F)(F)CC3)cc(NS(=O)(=O)c3ccc(Cl)cc3F)cc2C12CCC2 [Compound 175, 4-Chloro-N-(7′-((4,4-difluorocyclohexyl)oxy)-2′-oxospiro [cyclobutane-1,3′-indolin]-5′-yl)-2-fluorobenzenesulfonamide]
< 600 | COc1ccccc1S(=O)(=O)Nc1cc(OC2CCN(C)CC2)c2c(c1)C1(CCC1)C(=O)N2 [Compound-127, 2-methoxy-N-(7′-((1-methylpiperidin-4-yl)oxy)-2′-oxospiro[cyclobutane-1,3′-indolin]-5′-yl)benzenesulfonamide]
< 600 | CN(C)CCOc1cc(NS(=O)(=O)c2ccc(Cl)cc2F)cc2c1NC(=O)C21CCC1 [Compound 163, 4-Chloro-N-(7′-(2-(dimethylamino)ethoxy)-2′-oxospiro[cyclobutane-1,3′-indolin]-5′-yl)-2-fluorobenzenesulfonamide]
< 600 | CCNCCOc1cc(NS(=O)(=O)c2ccccc2OC)cc2c1NC(=O)C21CCC1 [compound 205, N-(7′-(2-(ethylamino)ethoxy)-2′-oxospiro[cyclobutane-1,3′-indolin]-5′-yl)-2-methoxybenzenesulfonamide]
